Reference: US20180344715A1, “WNT/BETA-CATENIN SIGNAL TRANSDUCTION INHIBITORS AND THEIR USE IN TREATMENT OR PREVENTION OF DISEASES AND CONDITIONS LINKED WITH SAID TRANSDUCTION” (BERGEN TEKNOLOGIOVERFORING AS, priority 2015, published 2018)

System: Wnt/β-catenin signaling
Assay: TOPFlash reporter assay in 293FT cells
Type: cell-based, human
Details: 1 μM 6BIO together with drug at indicated concentrations, 24 hours
Description: TOPFlash assay was performed in 96-well plate. For each well, 293T cells were transfected with 0.22 μg TOPFlash (or FOPFlash with mutant TCF binding sites) and 0.02 μg pRL-SV40P using lipofectamine 3000. For co-transfection with other plasmids, 0.1 μg additional DNA was used. […] The luciferase activity was measured 24 hours later by using Dual-Glo® Luciferase Assay System (Promega, E2940) according to the recommended protocol. The TOPFlash or FOPFlash activity was normalized to Renilla luciferase signals.
TOPFlash assay was performed as described above. Briefly, for each well of a 96-well plate 293FT cells were transfected with 0.22 μg TOPFlash (or FOPFlash with mutant TCF binding sites) and 0.02 μg pRL-SV40P using lipofectamine 3000. For co-transfection with other plasmids, 0.1 μg additional DNA was used. Four hours after transfection, 293FT cells were treated with DMSO, 1 μM 6B10 and 1 μM 6B10 together with pazopanib, orlistat and topotecan at varying concentrations for 24 hours. The luciferase activity was then measured using Dual-Glo® Luciferase Assay System (Promega, E2940) according to the recommended protocol. The TOPFlash or FOPFlash activity was normalized to Renilla luciferase signals.

| SMILES | TOPFlash activity normalized to Renilla luciferase activity |
| --- | --- |
| CC[C@@]1(O)C(=O)OCc2c1cc1n(c2=O)Cc2cc3c(CN(C)C)c(O)ccc3nc2-1.Cl [topotecan, (S)-10-[(dimethylamino)methyl]-4-ethyl-4,9-dihydroxy-1H-pyrano[3′,4′:6,7]indolizino[1,2-b]quinoline-3,14(4H,12H)-dione monohydrochloride] | Wnt signaling inhibition |
| CCCCCCCCCCC[C@@H](C[C@@H]1OC(=O)[C@H]1CCCCCC)OC(=O)[C@H](CC(C)C)NC=O [orlistat, (S)-((S)-1-((2S,3S)-3-Hexyl-4-oxooxetan-2-yl)tridecan-2-yl) 2-formamido-4-methylpentanoate] | Wnt signaling inhibition |
